The text below walks through data of patent US9872849B2, “Diterpenoid membranolide compounds having anti-leishmania activity and uses thereof” (UNIVERSITY OF SOUTH FLORIDA, priority 2014, dated 2018).

Where two headings read alike, the source gives them in different places.

The test system of data set [1] is L. donovani axenic amastigotes. In words: microbe, parasite or virus in culture. The format is cell-based, Leishmania donovani. As for the experimental part:
(§1) Leishmaniasis efficacy was tested against L. donovani axenic amastigotes (amphotericin B, positive control=0.38 μM). Cytotoxicity was verified against Vero cells.

In the next data set the test system is Vero cells. In words: Cytotoxicity against Vero cells. The format is cell-based. Conditions: for IC50: cytotoxicity, read-out: IC50 Values Vero Cell. The protocol: as §1
[2] abbreviates: axenic amastigotes, read-out: IC50 Values Leishmania donovani.

For `CO[C@H]1OC(=O)[C@H](C)c2c([C@@]3(C)CCCC(C)(C)C3)ccc(C=O)c21` [Membranolide B, membranolide B], the IC50 (in general, the concentration that inhibits the measured activity by half) in data set [1] (setting [2]) came out at 58.1 µM; in the data set with Vero cells, 44.3 µM.
On to membranolide G, for which the “activity against L. donovani (in words)” value in data set [1] is on record as “potent activity”. In addition, the IC50 in data set [1] (setting [2]) was 0.82 µM; in the data set with Vero cells, above 53.1 µM. Further, the “cytotoxicity (in words)” value with Vero cells is recorded as “lacking significant cytotoxicity”.
Turning to `CO[C@@H]1O[C@@H](OC)c2c1ccc([C@@]1(C)CCCC(C)(C)C1)c2[C@@H](C)C(=O)O` [Membranolide D, membranolide D], the IC50 was above 53.1 µM in data set [1] (Leishmania donovani, axenic amastigotes) and 40.7 µM in the data set with Vero cells (Chlorocebus sabaeus).
As to `CO[C@@H]1O[C@@H](OC)c2c1ccc([C@@]1(C)CCCC(C)(C)C1)c2[C@@H](C)C(=O)O` [Membranolide C, membranolide C], the IC50 in data set [1] (setting [2]) is above 53.1 µM; in the data set with Vero cells, 40.7 µM.
Consider `C[C@@H]1[C@H](O)[C@@H](C)/C=C/C=C/C=C/C=C/C=C/C=C/C=C/[C@H](O[C@@H]2O[C@H](C)[C@@H](O)[C@H](N)[C@@H]2O)C[C@@H]2O[C@](O)(C[C@@H](O)C[C@@H](O)[C@H](O)CC[C@@H](O)C[C@@H](O)CC(=O)O[C@H]1C)C[C@H](O)[C@H]2C(=O)O` [amphotericin B, reference compound], for which the IC50 in data set [1] (setting [2]) worked out at 0.38 µM.
With membranolide H, the “activity against L. donovani (in words)” value in data set [1] is “potent activity”. The IC50 in data set [1] (setting [2]) stood at 1.14 µM. For the same compound, in the data set with Vero cells, the “cytotoxicity (in words)” value was “lacking significant cytotoxicity” and the IC50 was above 53.1 µM.
For the compound membranolide F, the IC50 was 26.7 µM in data set [1] (setting [2]) and 42.4 µM with Vero cells.
The corresponding values for `CC(=O)O[C@@H]1OC2OC(=O)[C@H](C)C3=C([C@@]4(C)CCCC(C)(C)C4)CCC1C32` (stereo partly drawn) [Tetrahydroaplysulphurin, tetrahydroaplysulphurin] are 17.3 µM and 53.3 µM.
For the compound membranolide A, the “IC50 Values Leishmania donovani” value in data set [1] (axenic amastigotes) was “Inactive”. Moreover, the IC50 with Vero cells was above 58.1 µM.
Take aplysulphurin: the “selectivity index (cytotoxicity/activity)” value in data set [1] is listed as “high selectivity index”. The IC50 in data set [1] (setting [2]) was determined as 1.56 µM; in the data set with Vero cells, 47.7 µM.
